Reference: patent publication US9133195B2, “Quaternary ammonium salt compounds of spirocyclopiperazines, preparation methods and uses thereof” (Peking University, priority 2006, dated 2015)
Read-outs that look alike come from different tables or passages of the source.

Experiments:
Kunming mice [1] = assay: Acetic acid-induced writhing test; type: in vivo; settings: Mus musculus, sc; 31.0 umol/kg s.c.; acetic acid i.p. after 30 min; writhing counted for 10 min
Method: Kunming mice, male and female in half, were randomly divided into groups with 8 mice in each group. The following groups were established: the normal saline (NS) control group, in which normal saline was administered by subcutaneous injection (s.c.); the test groups, in which 31.0 umol/kg quaternary ammonium salts compounds of piperazines of the present invention was administered by s.c. All drugs were dissolved in normal saline before use. The drug was injected at the dose of 0.1 ml/10 g. After 30 min, 0.2 ml of 0.6% acetic acid was injected intraperitoneally for each mouse. After 2˜3 min, the writhing reactions such as abdominal constriction, stretch of body and hind limbs, and hip raise occurred. Five minutes after acetic acid injection, the numbers of writhing was counted for 10 min. The percentage of inhibition was determined by using the following formula (1): Inhibition %=[(The numbers of writhing of control group−the numbers of writhing of drag injection group)/the numbers of writhing of control group]×100% (1) 2 Experimental Results
This experiment was carried out according to that of Example 36.

mice [2] = assay: Hot-plate test; type: in vivo; settings: for pain threshold elevated rate (PTE %): at 2.0 h, 55° C. hot-plate; for ED50: Mus musculus, sc
Method: The temperature of the hot-plate was adjusted to 55° C. With licking hind paws and jumping as observation index, the time from placing of the animal on the hot plate to observation the above reactions was recorded as latency time, Latency time was measured for three times and calculated their mean value as Basal threshold or Baseline latency (BL), Mice with latency time of less than 5 s or more than 10 s were eliminated from the study. The remaining mice were divided into 8 groups, and 10 mice in each group. The following groups were established: the normal saline control group (NS), in which normal saline was administered (s.c.); the morphine control group (Mor), in which morphine was administered (s.c.) at the dose of 10.0 mg/kg; and compound LXM-10 groups, in which compound LXM-10 were administered (s.c.) at the dose of 0.75, 1.5, 3.0, 6.0, 12.0 and 24.0 mg/kg. All drugs were dissolved in normal saline before use. The drugs injected at the dose of 0.1 ml/10 g. The latency times were measured at 1.0, 1.5, 2.0, and 3.0 h after administering LXM-10. The cut-off time was set at 30 s to avoid skin scald. The percentage of pain threshold elevated rate (PTE %) was determined by using the following formula (2): PTE %=(The latency time of drug injection group−the latency time of control group at the corresponding time point)/the latency time of control group at the corresponding time point×100% (2)
To judge whether LXM-10 was effective as analgesic using this criterion: at the peak time point of this compound, the latency times of each compound LXM-10 group was greater than the mean latency time of normal saline control group at the corresponding time point plus three times of standard deviation. The effective percentage of each group was calculated made data conversion, then calculated the analgesic ED50 and 95% confidence interval (CI) in accordance with the formulae (3) and (4) using General Method for Calculating.
Wherein, Xm represents the logarithm value of the largest dose, i refers to group interval, ΣP refers to the sum of each group's efficiency, ΣP^2 represents the square sum of each group's efficiency, n refers to numbers of experimental groups.

ICR mice = assay: Formalin test; type: in vivo; settings: 0.5 h after s.c., dose not stated
Method: Sixty ICR mice, male and female in half, were divided into six groups with 10 mice in each group. The following groups were established: the normal saline (NS) control group, in which normal saline was administered by s.c.; the aspirin control group, in which aspirin was administered by i.g. at the dose of 300 mg/kg; the morphine control, group, in which morphine was administered (s.c.) at the dose of 10.0 mg/kg; and compound LXM-10 groups, in which compound LXM-10 were administered (s.c.) at the dose of 0.75, 1.5, 3.0 and 6.0 mg/kg. All drugs were dissolved in normal saline before use. The drugs injected at the dose of 0.1 ml/10 g. 30 min after administration, animals were administered 20 ul of 2.5% formalin solution on the right front paws. The licking times were recorded immediately in the duration of 0˜5 minutes as phase I reaction; After 20 minutes, the licking times were recorded in the duration of 20˜25 minutes as phase II reaction. The percentage of pain inhibition (%) was determined by using the following formula (5): Pain inhibition %=[(The licking time of normal saline control group−the licking time of drug injection group)/the licking time of normal saline control group]×100% (5) 2. Experimental Results

mice [3] = assay: Addiction test (tail-erected response); type: in vivo; settings: doses of 6.0, 12.0, 24.0 or 445.0 mg/kg
Method: (§1) All the following tests were carried out by using compound LXM-10 according to the routine methods.
They are quiet and normal.

Acute toxicity test = settings: in vivo, sc
Method: as §1

mice [4] = assay: Function of motion coordination (rota-rod); type: in vivo; settings: for Time of falling down from rota-rod: before treatment
Method: as §1
The effect of muscle-relaxed effect on the analgesic effect of LXM-10 was also excluded.

mice [5] = assay: Spontaneous motion in mice; type: in vivo; settings: for Numbers of movement: before treatment
Method: as §1

Body temperature in mice = type: in vivo; settings: for Rectal temperature: before treatment
Method: as §1

Kunming mice [6] = assay: Acetic acid-induced writhing test; type: in vivo; settings: 0.5 h after s.c. administration

With `CC1C[N+]2(CCN(CCc3ccccc3)CC2)CC(C)O1` (stereo not drawn) [LXM-10, 2,4-dimethyl-9-β-phenylethyl-3-oxo-6,9-diazaspiro[5.5]undecane chloride] the inhibition in vivo at 31 µmol/kg (Kunming mice [1]) was 65%, the “pain threshold elevated rate (PTE %)” value (mice [2]; 1.5 mg/kg s.c.) was 47.5% and the “pain threshold elevated rate (PTE %)” value (mice [2]; 3.0 mg/kg s.c.) was 54.8%. The “pain threshold elevated rate (PTE %)” value (mice [2]; 6.0 mg/kg s.c.) was 79.2%, the “pain threshold elevated rate (PTE %)” value (mice [2]; 12.0 mg/kg s.c.) was 126.8% and the ED50 (mice [2]; hot-plate, at peak time, read-out: analgesic ED50) was 3.2 mg/kg. For the same molecule, the ED50 (mice [2]; hot-plate, read-out: ED50 95% confidence interval) was 1.8 to 5.4 mg/kg, the “analgesic effect persisted to” value (mice [2]; s.c., hot-plate) was 3.0 h and the “onset time of analgesic effect” value (mice [2]; s.c., hot-plate) was 1.0 h. For the same molecule, the “peak time of analgesic effect” value (mice [2]; s.c., hot-plate) was 2.0 h, the “percentage of pain inhibition, Phase II” value (ICR mice; first of three values) was 67.0% and the “percentage of pain inhibition, Phase II” value (ICR mice; second of three values) was 69.6%. For the same molecule, the “percentage of pain inhibition, Phase II” value (ICR mice; third of three values) was 50.0%, the tail-erected response (mice [3]) was “no tail-erected response” and the LD50 (Acute toxicity test; read-out: LD50) was 514 mg/kg. For the same molecule, the LD50 (Acute toxicity test; read-out: LD50 95% confidence interval) was 495 to 531 mg/kg, the “Time of falling down from rota-rod after treatment” value (shortened to “Time … after treatment”) (mice [4]; 6.0 mg/kg, 0.5 h) was 106.5 ± 8.88 s and the “Time … after treatment” value (mice [4]; 6.0 mg/kg, 2.0 h) was 110.0 ± 5.17 s. For the same molecule, the “Time … after treatment” value (mice [4]; 6.0 mg/kg, 3.5 h) was 116.2 ± 3.75 s, the “Time of falling down from rota-rod” value (mice [4]; 6.0 mg/kg) was 96.7 ± 9.17 s and the “Time … after treatment” value (mice [4]; 12.0 mg/kg, 0.5 h) was 109.6 ± 10.3 s. The “Time … after treatment” value (mice [4]; 12.0 mg/kg, 2.0 h) was 109.3 ± 8.15 s, the “Time … after treatment” value (mice [4]; 12.0 mg/kg, 3.5 h) was 119.6 ± 0.38 s and the “Time of falling down from rota-rod” value (mice [4]; 12.0 mg/kg) was 96.6 ± 8.93 s. The “Time … after treatment” value (mice [4]; 24.0 mg/kg, 0.5 h) was 112.7 ± 5.18 s, the “Time … after treatment” value (mice [4]; 24.0 mg/kg, 2.0 h) was 117.5 ± 2.50 s and the “Time … after treatment” value (mice [4]; 24.0 mg/kg, 3.5 h) was 119.0 ± 1.00 s. The “Time of falling down from rota-rod” value (mice [4]; 24.0 mg/kg) was 101.2 ± 9.15 s, the “effect on function of motion coordination” value (mice [4]; 6.0, 12.0, 24.0 mg/kg) was “did not significantly affect” and the “Numbers of movement after treatment” value (mice [5]; 6.0 mg/kg, 0.5 h) was 46.6 ± 2.63. For the same molecule, the “Numbers of movement after treatment” value (mice [5]; 6.0 mg/kg, 2.0 h) was 42.3 ± 3.38, the “Numbers of movement after treatment” value (mice [5]; 6.0 mg/kg, 3.5 h) was 48.0 ± 5.00 and the Numbers of movement (mice [5]; 6.0 mg/kg) was 46.8 ± 1.96. The “Numbers of movement after treatment” value (mice [5]; 12.0 mg/kg, 0.5 h) was 48.0 ± 6.21, the “Numbers of movement after treatment” value (mice [5]; 12.0 mg/kg, 2.0 h) was 48.1 ± 6.14 and the “Numbers of movement after treatment” value (mice [5]; 12.0 mg/kg, 3.5 h) was 48.0 ± 7.85. The Numbers of movement (mice [5]; 12.0 mg/kg) was 47.7 ± 2.55, the “Numbers of movement after treatment” value (mice [5]; 24.0 mg/kg, 0.5 h) was 43.5 ± 4.21 and the “Numbers of movement after treatment” value (mice [5]; 24.0 mg/kg, 2.0 h) was 45.5 ± 6.05. The “Numbers of movement after treatment” value (mice [5]; 24.0 mg/kg, 3.5 h) was 46.6 ± 3.69, the Numbers of movement (mice [5]; 24.0 mg/kg) was 50.2 ± 2.31 and the “effect on spontaneous motion” value (mice [5]; 6.0, 12.0, 24.0 mg/kg) was “did not significantly affect”. The “Rectal temperature after treatment” value (Body temperature in mice; 6.0 mg/kg, 0.5 h) was 37.3 ± 0.35 °C, the “Rectal temperature after treatment” value (Body temperature in mice; 6.0 mg/kg, 2.0 h) was 37.3 ± 0.28 °C and the “Rectal temperature after treatment” value (Body temperature in mice; 6.0 mg/kg, 3.5 h) was 37.5 ± 0.29 °C. The Rectal temperature (Body temperature in mice; 6.0 mg/kg) was 37.7 ± 0.34 °C, the “Rectal temperature after treatment” value (Body temperature in mice; 12.0 mg/kg, 0.5 h) was 37.0 ± 0.26 °C and the “Rectal temperature after treatment” value (Body temperature in mice; 12.0 mg/kg, 2.0 h) was 37.1 ± 0.24 °C. The “Rectal temperature after treatment” value (Body temperature in mice; 12.0 mg/kg, 3.5 h) was 37.1 ± 0.20 °C, the Rectal temperature (Body temperature in mice; 12.0 mg/kg) was 37.1 ± 0.09 °C and the “Rectal temperature after treatment” value (Body temperature in mice; 24.0 mg/kg, 0.5 h) was 37.5 ± 0.21 °C. For the same molecule, the “Rectal temperature after treatment” value (Body temperature in mice; 24.0 mg/kg, 2.0 h) was 37.0 ± 0.19 °C, the “Rectal temperature after treatment” value (Body temperature in mice; 24.0 mg/kg, 3.5 h) was 37.3 ± 0.16 °C and the Rectal temperature (Body temperature in mice; 24.0 mg/kg) was 37.0 ± 0.18 °C. For the same molecule, the “effect on body temperature” value (Body temperature in mice; 6.0, 12.0, 24.0 mg/kg) was “did not affect”, the “percentage of pain inhibition” value (Kunming mice [6]; 1.5 mg/kg) was 63.4% and the “percentage of pain inhibition” value (Kunming mice [6]; 3.0 mg/kg) was 78.8%. For the same molecule, the “percentage of pain inhibition” value (Kunming mice [6]; 6.0 mg/kg) was 79.2% and the “percentage of pain inhibition” value (Kunming mice [6]; 12.0 mg/kg) was 55.6%.
